Assay: Solubilization of sparingly water-soluble active ingredient in aqueous poloxamer formulations, quantified by UV/Vis spectroscopy
Assay type: physicochemical
Experimental: General procedure for the preparation of the aqueous formulations: […]
The data in % by weight in the tables below refer to the total amount of the aqueous formulation.
Components A and B in the amounts stated below in each case and also 2% by weight of active ingredient were dissolved in water (at 20° C. and ambient pressure).
The sample was stirred at 20° C. for 24 h (magnetic stirrer 500 rpm) and then filtered through an injection filter (PVDF filter membrane, 0.45 μm pore size).
The active ingredient quantification takes place via UV/Vis spectroscopy. For this, the samples were diluted with an organic solvent in which the active ingredient dissolves to at least 10 000 ppm (1% by weight) (ethanol).
By contrast, the solubilizing effect of a 5% strength by weight aqueous solution of PE10400 as individual component was stipulated as standard with the value 1 and the solubilizing effect of the mixtures was determined against this standard.
The solubilizing effect of a 5% strength by weight aqueous solution of PE 10400 was again selected as standard 1.

## Cn1cc(C(=O)Nc2ccccc2-c2cc(F)c(F)c(F)c2)c(C(F)F)n1 [fluxapyroxad]
5% by weight PE 4300 in water, 20° C., 24 h stirring, filtered 0.45 μm
  solubility in a 5% strength by weight aqueous solution of PE 4300 (component B): 28 ppm
5% by weight PE 6200 in water, 20° C., 24 h stirring, filtered 0.45 μm
  solubility in a 5% strength by weight aqueous solution of PE 6200 (component B): 31 ppm
5% by weight PE 10400 in water, 20° C., 24 h stirring, filtered 0.45 μm
  solubility in a 5% strength by weight aqueous solution of PE 10400 (component A): 710 ppm
Pure water
  solubility in pure water: 5 ppm

— patent publication US20160074517A1, “AQUEOUS FORMULATIONS OF SPARINGLY WATER-SOLUBLE ACTIVE INGREDIENTS COMPRISING AS SOLUBILIZER A MIXTURE OF POLOXAMERS DIFFERING IN HYDROPHOBICITY” (BASF SE, priority 2013, published 2016)
